Data from patent US7435837B2, “Dihydrobenzofuranyl alkanamine derivatives and methods for using same” (Wyeth, priority 2003, dated 2008).
Like-named read-outs stand apart in the source and are kept apart here.

Molecular target: T1, human 5-HT2C receptor (Homo sapiens, UniProt P28335)
T1 sequence (P28335 33-458): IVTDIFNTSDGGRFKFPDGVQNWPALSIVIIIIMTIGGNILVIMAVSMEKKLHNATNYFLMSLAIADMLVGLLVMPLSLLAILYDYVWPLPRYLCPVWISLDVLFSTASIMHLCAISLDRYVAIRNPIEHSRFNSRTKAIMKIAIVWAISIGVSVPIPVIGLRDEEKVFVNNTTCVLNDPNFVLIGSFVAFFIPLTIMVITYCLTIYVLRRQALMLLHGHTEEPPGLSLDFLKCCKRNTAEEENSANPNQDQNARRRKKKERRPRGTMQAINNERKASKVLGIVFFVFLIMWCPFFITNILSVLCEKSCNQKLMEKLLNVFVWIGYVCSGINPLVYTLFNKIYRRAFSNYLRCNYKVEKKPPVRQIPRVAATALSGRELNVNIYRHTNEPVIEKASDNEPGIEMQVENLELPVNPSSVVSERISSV
Assay: 5-HT2C receptor-stimulated calcium mobilization (FLIPR) in CHO cells;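 also: Fluo-3-AM fluorescence read on FLIPR every 1 s, agonist added after 10 baseline reads, response taken as peak minus lowest raw fluorescence count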
Assay type: cell-based
Conditions: for EC50: calcium mobilization, CHO cells stably expressing human 5-HT2C, read-out: 5-HT2C Function EC50; for Emax: CHO

[1] = percentage of the response observed with a maximally effective concentration of 5-HT
[2] = percentage of the response observed with a maximally effective concentration of 5-HT, read-out: 5-HT2C Function Emax (%)

SMILES	EC50 [nM]	5-HT2C Function Emax (%) [1] [%]	Emax [2] [%]	Emax (read-out: 5-HT2C Function Emax (%), percentage of the response observed with a maximally effective concentration of 5-HT) [%]
Fc1cc2c(c(-c3c(Cl)cccc3Cl)c1)OC(CN1CCCCC1)C2 (racemic) [Example 238, (±)-1-{[7-(2,6-dichlorophenyl)-5-fluoro-2,3-dihydro-1-benzofuran-2-yl]methyl}piperidine]	529	–	40	–
CNCC1Cc2cccc(-c3cccc(F)c3F)c2O1 (racemic) [Example 437, (±)-[(N-methyl-1-[7-(2,3-difluorophenyl)-2,3-dihydro-1-benzofuran-2-yl]methanamine]	30	–	80	–
CNCC1Cc2cc(F)cc(-c3ccc(Cl)cc3Cl)c2O1 (single isomer, unassigned; (+)) [Example 447]	3	90	–	–
CNCC1Cc2cccc(-c3cccc(C)c3C)c2O1 (racemic) [Example 422, (±)-[(N-methyl-1-[7-(2,3-dimethylphenyl)-2,3-dihydro-1-benzofuran-2-yl]methanamine]	443	–	80	–
CNCC1Cc2cc(Cl)cc(-c3ccccc3OC)c2O1 (racemic) [Example 460, (±)-[(5-chloro-7-(2-methoxyphenyl)-2,3-dihydro-1-benzofuran-2-yl]methyl}methylamine]	215	–	90	–
Cc1cccc(C)c1-c1cc(Cl)cc2c1OC(CNCC1CC1)C2 (racemic) [Example 268, (±)-N-{[5-chloro-7-(2,6-dimethylphenyl)-2,3-dihydro-1-benzofuran-2-yl]methyl}(cyclopropylmethyl)amine]	961	–	50	–
CCCNCC1Cc2cc(Cl)cc(-c3c(C)cccc3C)c2O1 (racemic) [Example 278, (±)-N-{[5-chloro-7-(2,6-dimethylphenyl)-2,3-dihydro-1-benzofuran-2-yl]methyl}propan-1-amine]	726	–	60	–
CNCC1Cc2cc(F)cc(-c3ccc(Cl)cc3Cl)c2O1 (single isomer, unassigned; (-)) [Example 446]	460	–	–	70
CNCC1Cc2cc(F)cc(-c3cccc(OC)c3OC)c2O1 (single isomer, unassigned; (-)) [Example 568, (−)-{[7-(2,3-dimethoxyphenyl)-5-fluoro-2,3-dihydro-1-benzofuran-2-yl]methyl}methylamine]	4	–	80	–
CNCC1Cc2cccc(-c3ccc(Cl)cc3Cl)c2O1 (racemic) [Example 425, (±)-[(N-methyl-1-[7-(2,4-dichlorophenyl)-2,3-dihydro-1-benzofuran-2-yl]methanamine]	9	–	100	–
CNCC1Cc2cc(F)cc(-c3c(Cl)cccc3Cl)c2O1 (single isomer, unassigned; (-)) [Example 544, (−){[7-(2,6-dichlorophenyl)-5-fluoro-2,3-dihydro-1-benzofuran-2-yl]methyl}methylamine]	73	70	–	–
CNCC1Cc2cc(Cl)cc(-c3c(C)cccc3C)c2O1 (single isomer, unassigned; (+)) [Example 565, (+)-{[5-chloro-7-(2,6-dimethylphenyl)-2,3-dihydro-1-benzofuran-2-yl]methyl}methylamine]	287	70	–	–
Fc1cc2c(c(-c3c(Cl)cccc3Cl)c1)OC(CN1CCCC1)C2 (racemic) [Example 240, (±)-1-{[7-(2,6-dichlorophenyl)-5-fluoro-2,3-dihydro-1-benzofuran-2-yl]methyl}pyrrolidine]	89	–	70	–
NCC1Cc2cccc(-c3cccc(F)c3F)c2O1 (racemic) [Example 160, (±)-{[7-(2,3-difluorophenyl)-2,3-dihydro-1-benzofuran-2-yl]methyl}amine]	32	–	100	–
CNCC1Cc2cc(Cl)cc(-c3cccc(Cl)c3Cl)c2O1 (racemic) [Example 464, (±)-{[5-chloro-7-(2,3-dichlorophenyl)-2,3-dihydro-1-benzofuran-2-yl]methyl}methylamine]	462	–	70	–

Now from value to molecule, other results behind:

EC50 [nM]	5-HT2C Function Emax (%) [1] [%]	Emax [2] [%]	SMILES	Emax (read-out: 5-HT2C Function Emax (%), percentage of the response observed with a maximally effective concentration of 5-HT) [%]
82	80	–	CNCC1Cc2cccc(-c3c(Cl)cccc3Cl)c2O1 (single isomer, unassigned; (+)) [Example 435, (+)-{[7-(2,6-dichlorophenyl)-2,3-dihydro-1-benzofuran-2-yl]methyl}methylamine]	–
614	–	20	Fc1cc2c(c(-c3c(Cl)cccc3Cl)c1)OC(CNC1CCC1)C2 (racemic) [Example 233, (±)-N-{[7-(2,6-dichlorophenyl)-5-fluoro-2,3-dihydro-1-benzofuran-2-yl]methyl}cyclobutanamine]	–
49	–	90	CNCC1Cc2cccc(-c3ccc(F)cc3F)c2O1 (racemic) [Example 424, (±)-[(N-methyl-1-[7-(2,4-difluorophenyl)-2,3-dihydro-1-benzofuran-2-yl]methanamine]	–
73	–	80	CNCC1Cc2cc(Cl)cc(-c3ccc(Cl)cc3Cl)c2O1 (racemic) [Example 468, (±)-{[5-chloro-7-(2,4-dichlorophenyl)-2,3-dihydro-1-benzofuran-2-yl]methyl}methylamine]	–
69	–	80	CNCC1Cc2cccc(-c3cc(F)ccc3F)c2O1 (racemic) [Example 428, (±)-[(N-methyl-1-[7-(2,5-difluorophenyl)-2,3-dihydro-1-benzofuran-2-yl]methanamine]	–
594	–	90	CCNCC1Cc2cc(Cl)cc(-c3c(C)cccc3C)c2O1 (racemic) [Example 271, (±)-N-{[5-chloro-7-(2,6-dimethylphenyl)-2,3-dihydro-1-benzofuran-2-yl]methyl}ethanamine]	–
0.2	–	80	Clc1cccc(Cl)c1-c1cccc2c1OC(CNC1CC1)C2 (racemic) [Example 391, (±)-N-{[7-(2,6-dichlorophenyl)-2,3-dihydro-1-benzofuran-2-yl]methyl}cyclopropanamine]	–
448	–	80	CNCC1Cc2cccc(-c3cc(Cl)ccc3OC)c2O1 (racemic) [Example 430, (±)-[(N-methyl-1-[7-(5-chloro-2-methoxyphenyl)-2,3-dihydro-1-benzofuran-2-yl]methanamine]	–
0.4	–	80	Fc1cc2c(c(-c3c(Cl)cccc3Cl)c1)OC(CNC1CC1)C2 (racemic) [Example 231, (±)-N-{[7-(2,6-dichlorophenyl)-5-fluoro-2,3-dihydro-1-benzofuran-2-yl]methyl}cyclopropanamine]	–
17	–	100	CNCC1Cc2cccc(-c3ccc(OC)cc3OC)c2O1 (racemic) [Example 426, (±)-[(N-methyl-1-[7-(2,4-dimethoxyphenyl)-2,3-dihydro-1-benzofuran-2-yl]methanamine]	–
43	–	90	CNCC1Cc2cc(Cl)cc(-c3c(C)cccc3C)c2O1 (single isomer, unassigned; (-)) [Example 564, (−)-{[5-chloro-7-(2,6-dimethylphenyl)-2,3-dihydro-1-benzofuran-2-yl]methyl}methylamine]	–
9	60	–	CNCC1Cc2cc(C)cc(-c3cccc(OC)c3OC)c2O1 (single isomer, unassigned; (-)) [Example 567, (−)-{[7-(2,3-dimethoxyphenyl)-5-methyl-2,3-dihydro-1-benzofuran-2-yl]methyl}methylamine]	–
55	–	90	CNCC1Cc2cccc(-c3cccnc3)c2O1 (racemic) [Example 436, (±)-N-methyl-1-(7-pyridin-3-yl-2,3-dihydro-1-benzofuran-2-yl)methanamine]	–
496	–	60	CNCC1Cc2cc(Cl)cc(-c3cccc(C)c3C)c2O1 (racemic) [Example 465, (±)-{[5-chloro-7-(2,3-dimethylphenyl)-2,3-dihydro-1-benzofuran-2-yl]methyl}methylamine]	–
24	–	80	CNCC1Cc2cc(F)cc(-c3c(C)cccc3C)c2O1 (racemic) [Example 453, (±)-{[7-(2,6-dimethylphenyl)-5-fluoro-2,3-dihydro-1-benzofuran-2-yl]methyl}methylamine]	–
1430	–	40	Fc1cc2c(c(-c3c(Cl)cccc3Cl)c1)OC(CN1CCOCC1)C2 (racemic) [Example 239, (±)-1-{[7-(2,6-dichlorophenyl)-5-fluoro-2,3-dihydro-1-benzofuran-2-yl]methyl}morpholine]	–
313	70	–	Cc1cccc(C)c1-c1cc(F)cc2c1OC(CN)C2 (single isomer, unassigned; (+)) [Example 228, (+)-{[7-(2,6-dimethylphenyl)-5-fluoro-2,3-dihydro-1-benzofuran-2-yl]methyl}amine]	–
353	–	80	CNCC1Cc2cc(Cl)cc(-c3cc(Cl)ccc3OC)c2O1 (racemic) [Example 472, (±)-{[5-chloro-7-(5-chloro-2-methoxyphenyl)-2,3-dihydro-1-benzofuran-2-yl]methyl}methylamine]	–
135	70	–	CNCC1Cc2cc(Cl)cc(-c3cc(Cl)ccc3Cl)c2O1 (single isomer, unassigned; (-)) [Example 563, (−)-{[5-chloro-7-(2,5-dichlorophenyl)-2,3-dihydro-1-benzofuran-2-yl]methyl}methylamine]	–
